Laboratory results reported in PubChem BioAssay (NCI).
Values joined by “and” are separate entries in the source; they are usually repeats but may differ in a detail not shown here. Equal values may be shown once.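 In this assay, cells in 96-well plates receive the compound at five concentrations for 48 hours. Endpoints are linearly interpolated between the surrounding concentrations. Abbreviation: GI50, concentration required for 50% inhibition of growth. TGI: concentration producing complete growth inhibition.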

Columns and labels:
Assay in all cases: NCI anticancer screen, dose series, 48 h
SR leukemia = test system: SR leukemia
MALME-3M melanoma = test system: MALME-3M melanoma
SK-MEL-5 melanoma = test system: SK-MEL-5 melanoma
CCRF-CEM leukemia = test system: CCRF-CEM leukemia
LOX IMVI melanoma = test system: LOX IMVI melanoma
SNB-19 CNS = test system: SNB-19 CNS
MDA-MB-435 = test system: MDA-MB-435
SF-539 CNS = test system: SF-539 CNS
SK-MEL-28 melanoma = test system: SK-MEL-28 melanoma
SK-MEL-2 melanoma = test system: SK-MEL-2 melanoma

SMILES	GI50 (SR leukemia)	TGI (SR leukemia)	GI50 (MALME-3M melanoma)	TGI (MALME-3M melanoma)	GI50 (SK-MEL-5 melanoma)	TGI (SK-MEL-5 melanoma)	GI50 (CCRF-CEM leukemia)	TGI (CCRF-CEM leukemia)	GI50 (LOX IMVI melanoma)	TGI (LOX IMVI melanoma)	GI50 (SNB-19 CNS)	TGI (SNB-19 CNS)	GI50 (MDA-MB-435)	TGI (MDA-MB-435)	GI50 (SF-539 CNS)	TGI (SF-539 CNS)	GI50 (SK-MEL-28 melanoma)	TGI (SK-MEL-28 melanoma)	GI50 (SK-MEL-2 melanoma)	TGI (SK-MEL-2 melanoma)
C=C1C(=O)O[C@H]2[C@H]1CC/C(COC(=O)c1ccc(Cl)nc1)=C\CC[C@@]1(C)O[C@@H]21	0.658 µM	38.8 µM	2.12 µM	4.19 µM	3.23 µM	11.1 µM	1.22 µM	6.9 µM	1.58 µM	3.33 µM	7.55 µM	20.1 µM	2.14 µM	6.81 µM	1.61 µM	3.61 µM	1.94 µM	4.9 µM	2.06 µM	5.51 µM
O=[N+]([O-])c1ccc2c(c1)C(c1ccccc1Cl)=Nc1cn[nH]c1N2	15.2 µM	> 25 µM	> 25 µM	> 25 µM	11.3 µM	> 25 µM	8 µM	> 25 µM	18.1 µM	> 25 µM	> 25 µM	> 25 µM	15.1 µM	> 25 µM	14.6 µM	> 25 µM	> 23.7 µM	> 25 µM	10.7 µM	> 22 µM
NC(N)=NCCCCCNc1noc(Cc2c[nH]c3cc(Br)ccc23)n1	13.8 µM	40 µM	8.34 µM	35 µM	4.52 µM	16.2 µM	13.9 µM	39.5 µM	10.6 µM	45.2 µM	3.62 µM	20.4 µM	19.3 µM	62.7 µM	12.5 µM	29.5 µM	16.3 µM	36.7 µM	22.8 µM	57.8 µM
COc1cc2c(c(OC)n1)[C@]1(O)[C@H](O)[C@H](CN(C)C)[C@@H](c3ccccc3)[C@]1(c1ccc(C#N)cc1)O2	0.0246 µM and < 0.0114 µM	4.48 µM	0.0194 µM and 0.019 µM	0.7 µM and 0.841 µM	0.0206 µM and 0.0196 µM	0.0676 µM and 0.556 µM	< 0.01 µM	> 52.7 µM and 13.6 µM	< 0.01 µM	0.0153 µM and 0.0133 µM	0.0111 µM and 0.0104 µM	3.8 µM and 4.21 µM	0.0163 µM and 0.0143 µM	1.06 µM and 8.13 µM	0.0142 µM and < 0.0116 µM	0.0963 µM and 0.122 µM	0.0334 µM and 0.0313 µM	0.813 µM and 1.56 µM	0.0319 µM and 0.034 µM	0.318 µM and 0.369 µM
COc1ccc2c(c1)C(C)Cc1c(ncnc1-n1c(C)nc3ccccc31)N2C (stereo not given)	0.345 µM	5.54 µM	11.3 µM	25.2 µM	3.42 µM	13 µM	2.85 µM	16.4 µM	4.42 µM	23.9 µM	4.45 µM	23.1 µM	0.315 µM	1.89 µM	2.34 µM	6.92 µM	11.1 µM	26.2 µM	4.48 µM	17.8 µM
CCOC(=O)c1c[nH]c2oc(/C=N/N3CC(CN4CCOCC4)OC3=O)cc2c1=O (stereo not given)		> 100 µM		> 100 µM		> 100 µM		> 100 µM		> 100 µM		> 100 µM		> 100 µM		> 100 µM		> 100 µM		> 100 µM
